Measurements: patent US20230200390A1, “SELECTIVE HERBICIDES BASED ON SUBSTITUTED ISOXAZOLIN CARBOXAMIDES AND MEFENPYR-DIETHYL” (BAYER AKTIENGESELLSCHAFT, priority 2020, published 2023)

Key:
Type in all cases: in vivo
[1] = system: spring wheat, TRZAS Triso; test: Tank-mix; post-emergence: crop damage by herbicide with/without safener mefenpyr-diethyl; conditions: 21 DAT
How it was run: (§1)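 Visual percent crop damage (0–100 relative to untreated plants) assessed 1–3 weeks post-application. Plants in sandy loam were sprayed at the 1–3-leaf stage with herbicide with or without safener at several rates, water volume 300 l/ha.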

[2] = system: spring barley, HORVS Montoya; test: as above; conditions: 21 DAT
How it was run: as §1

[3] = system: spring wheat, TRZAS Triso; test: Seed treatment with safener; pre-emergence herbicide, crop damage; conditions: for HER effect + SAF / Reduction [%] / Reduction [Difference]: mefenpyr-diethyl 0.25 g a.i./kg seed
Protocol: (§2) For the safener seed treatment, sufficient seeds of the respective crops (spring wheat, TRZAS; spring barley, HORVS; maize, ZEAMA) were weighed into screw top glass bottles approximately twice the volume of the seeds.
(§3) The specified safeners, formulated as wettable powder (WP) were weighed out so that the specified rates (g a.i./kg seed) would be obtained, dissolved in water (1 ml water per 10 g of seeds), and added to the seeds to produce a slurry.
(§4) The bottles were capped and then placed in an overhead shaker (set at medium speed for ca. 60 minutes) so that the seeds were evenly coated with the slurry. The bottles were uncapped and the seeds were either placed on paper and dried for an interval of 3-4 hours prior to sowing, or directly sown. Seeds were placed in sandy loam soil in pots of a diameter of 7-8 cm, and covered with soil.
(§5) Pre-emergence application of the specified herbicides was done subsequently, on two sets of plants:
(§6) a) seed treatment with safener, as described above
(§7) The herbicides were formulated as WP and was sprayed onto the soil surface as an aqueous suspension at an equivalent water application rate of 300 l/ha.
(§8) After application, the test plants were kept in the greenhouse under good growth conditions. At intervals up to 4 weeks after application (=28 days after treatment; DAT), % crop damage observed on the treated plants was scored visually in comparison to control plants that had not received any safener or herbicide treatment.
(§9) Values in the table below are mean values of at least 2 replicates.

[4] = system: spring barley, HORVS Montoya; test: as above; conditions: for HER effect + SAF / Reduction [%] / Reduction [Difference]: mefenpyr-diethyl 0.25 g a.i./kg seed
Protocol: as §2, §3, §4, §5, §6, §7, §8, §9

[5] = system: spring wheat, TRZAS Triso; test: Seed treatment with safener; post-emergence herbicide, crop damage; conditions: 21 DAT; for HER effect + SAF [%] (crop damage) / Reduction [%] / Reduction [Difference]: mefenpyr-diethyl 0.5 g a.i./kg seed; for HER effect [%] (crop damage, herbicide without safener): no safener
How it was run: (§10)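 Crop injury was rated visually in % at 10 and 21 days after post-emergence spraying at the 2-leaf stage. The herbicide was a WP in 300 l/ha water plus 1 l/ha MERO. Plants grew from seed either safener-coated at stated g a.i./kg rates via a milk-diluted slurry, or untreated.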

[6] = system: spring barley, HORVS Montoya; test: as above; conditions: 21 DAT; for HER effect + SAF / Reduction [%] / Reduction [Difference]: mefenpyr-diethyl 0.5 g a.i./kg seed
How it was run: as §10

[7] = HER 1 g a.i./ha + mefenpyr-diethyl 50 g a.i./ha
[8] = HER 4 g a.i./ha + mefenpyr-diethyl 100 g a.i./ha
[9] = HER 0.5 g a.i./ha + mefenpyr-diethyl 50 g a.i./ha
[10] = HER 2 g a.i./ha + mefenpyr-diethyl 100 g a.i./ha
[11] = HER 5 g a.i./ha pre-emergence, 11 DAT (Interim)
[12] = HER 5 g a.i./ha pre-emergence, 21 DAT (Final)
[13] = HER 15 g a.i./ha pre-emergence, 11 DAT (Interim)
[14] = HER 15 g a.i./ha pre-emergence, 21 DAT (Final)
[15] = herbicide alone 5 g a.i./ha pre-emergence, 11 DAT (Interim)
[16] = herbicide alone 5 g a.i./ha pre-emergence, 21 DAT (Final)
[17] = herbicide alone 15 g a.i./ha pre-emergence, 11 DAT (Interim)
[18] = herbicide alone 15 g a.i./ha pre-emergence, 21 DAT (Final)
[19] = HER 0.5 g a.i./ha post-emergence

With `C=CC1(C(=O)NC2COC(C(=O)OC)C2)CC(c2cc(F)cc(F)c2)=NO1` (mixture of isomers) [Example 1.68] the “HER effect + SAF” value [1, 7] was 30%, the “Reduction [%]” value [1, 7] was 63% and the “Reduction [Difference]” value [1, 7] was 50. For the same compound, the “HER effect + SAF” value [1, 8] was 60%, the “Reduction [%]” value [1, 8] was 29% and the “Reduction [Difference]” value [1, 8] was 25. For the same compound, the HER effect ([1]; herbicide alone 1 g a.i./ha) was 80%, the HER effect ([1]; herbicide alone 4 g a.i./ha) was 85% and the “HER effect + SAF” value [2, 9] was 0%. The “Reduction [%]” value [2, 9] was 100%, the “Reduction [Difference]” value [2, 9] was 30 and the “HER effect + SAF” value [2, 10] was 10%. For the same compound, the “Reduction [%]” value [2, 10] was 75%, the “Reduction [Difference]” value [2, 10] was 30 and the HER effect ([2]; herbicide alone 0.5 g a.i./ha) was 30%. The HER effect ([2]; herbicide alone 2 g a.i./ha) was 40%, the “HER effect + SAF” value [3, 11] was 15% and the “Reduction [%]” value [3, 11] was 67%. The “Reduction [Difference]” value [3, 11] was 30, the “HER effect + SAF” value [3, 12] was 5% and the “Reduction [%]” value [3, 12] was 89%. The “Reduction [Difference]” value [3, 12] was 40, the “HER effect + SAF” value [3, 13] was 30% and the “Reduction [%]” value [3, 13] was 63%. The “Reduction [Difference]” value [3, 13] was 50, the “HER effect + SAF” value [3, 14] was 30% and the “Reduction [%]” value [3, 14] was 65%. The “Reduction [Difference]” value [3, 14] was 55, the HER effect [3, 15] was 45% and the HER effect [3, 16] was 45%. For the same compound, the HER effect [3, 17] was 80%, the HER effect [3, 18] was 85% and the “HER effect + SAF” value [4, 11] was 5%. For the same compound, the “Reduction [%]” value [4, 11] was 80%, the “Reduction [Difference]” value [4, 11] was 20 and the “HER effect + SAF” value [4, 12] was 5%. For the same compound, the “Reduction [%]” value [4, 12] was 83%, the “Reduction [Difference]” value [4, 12] was 25 and the “HER effect + SAF” value [4, 13] was 0%. The “Reduction [%]” value [4, 13] was 100%, the “Reduction [Difference]” value [4, 13] was 65 and the “HER effect + SAF” value [4, 14] was 60%. The “Reduction [%]” value [4, 14] was 25%, the “Reduction [Difference]” value [4, 14] was 20 and the HER effect [4, 15] was 25%. The HER effect [4, 16] was 30%, the HER effect [4, 17] was 65% and the HER effect [4, 18] was 80%. The “HER effect + SAF [%] (crop damage)” value ([5]; HER dose 1 g a.i./ha) was 20%, the “Reduction [%]” value ([5]; HER dose 1 g a.i./ha) was 75% and the “Reduction [Difference]” value ([5]; HER dose 1 g a.i./ha) was 60. For the same compound, the “HER effect [%] (crop damage, herbicide without safener)” value ([5]; HER dose 1 g a.i./ha) was 80%, the “HER effect + SAF [%] (crop damage)” value ([5]; HER dose 4 g a.i./ha) was 30% and the “Reduction [%]” value ([5]; HER dose 4 g a.i./ha) was 65%. The “Reduction [Difference]” value ([5]; HER dose 4 g a.i./ha) was 55, the “HER effect [%] (crop damage, herbicide without safener)” value ([5]; HER dose 4 g a.i./ha) was 85% and the “HER effect + SAF” value [6, 19] was 0%. The “Reduction [%]” value [6, 19] was 100%, the “Reduction [Difference]” value [6, 19] was 30 and the “HER effect + SAF” value ([6]; HER 2 g a.i./ha post-emergence) was 0%. For the same compound, the “Reduction [%]” value ([6]; HER 2 g a.i./ha post-emergence) was 100%, the “Reduction [Difference]” value ([6]; HER 2 g a.i./ha post-emergence) was 40 and the HER effect ([6]; herbicide alone 0.5 g a.i./ha post-emergence) was 30%. It also gave an HER effect ([6]; herbicide alone 2 g a.i./ha post-emergence) of 40%.
